Measured values published in patent US20250057785A1, “APPLICATION OF 10'(Z), 13'(E), 15'(E)-HEPTADECATRIENYL HYDROQUINONE (HQ17(3)) IN TREATING CORONAVIRUS INFECTION” (National Atomic Research Institute, priority 2023, published 2025).

Key:
[1] = test system: novel coronavirus (SARS-COV-2); test: Vero E6 cells plaque assay of SARS-COV-2 replication; format: cell-based
blood cancer HL-60 cells = settings: 5 uM, cultured for 48 hours; cited from earlier work
[2] = test system: peripheral white blood cells; settings: cited from earlier work
[3] = intraperitoneal injection of 1 mg/kg daily for 28 days, F344 rats; cited from earlier work

C/C=C/C=C/C/C=C\CCCCCCCCCc1cc(O)ccc1O [HQ17(3), 10′(Z), 13′(E), 15′(E)-Heptadecatrienyl hydroquinone]
virus inhibition rate (viral plaques) ([1]; 10 uM HQ17(3), stock in 0.1% DMSO, Vero E6 cells, one week): more than 60% | EC50 ([1]; Severe acute respiratory syndrome coronavirus 2, Vero C1008, 168 h, read-out: EC50, inhibition of SARS-COV-2 replication in cells by 50%): 8.5 ± 0.96 µM | replication of HL-60 cells (blood cancer HL-60 cells): the replication of blood cancer HL-60 cells was stopped | effect on peripheral white blood cells ([2]; 5 uM): no effect on peripheral white blood cells | toxicity on peripheral white blood cells ([2]; 50 uM): no toxicity on peripheral white blood cells was observed | toxicity in rats [3]: no toxicity was observed
